Reference: US20220054493A1, “INHIBITORS OF NGAL PROTEIN” (INSERM (INSTITUT NATIONAL DE LA SANTÉ ET DE LA RECHERCHE …, priority 2019, published 2022)

Assays:
CaCo2 cell line = assay: Bi-CaCo2 permeability assay; assay type: in vitro ADME, human
Procedure: (§1) The Caco-2 Permeability assay uses an established method for predicting the in vivo absorption of drugs across the gut wall. The transport rate across the CaCo2 cell line is measured. This cell line has a human colon carcinoma origin and resembles to the intestinal epithelia (a polarised monolayer with microvilli and intercellular tight junctions).
(§2) Bidirectional transport (apical to basolateral (A-B) and basolateral to apical (B-A)) across the cell monolayer were determined allowing to calculate the efflux ratio (an indicator as to whether a compound undergoes active efflux).

Aqueous solubility = assay type: physicochemical
Procedure: (§3) Two specific toxicity assays have been performed to assess hepatoxicity and cardiotoxicity. Hepatotoxicity was evaluated in isolated hepatocytes from swiss mice and determined by the MTT colorimetric assay. Cardiotoxicity was evaluated using the commercially available Predictor hERG fluorescence polarization kit (Thermo Fisher Scientific). Several ADME assays have been carried out on the compounds generated throughout the project. The following experiments were undertaken: Stability in human microsomes, binding to human plasma protein, and CYP3A4 inhibition assay (Vivid CYP3A4 assay, Thermo Fisher Scientific). Physico-chemical properties were also assessed such as aqueous solubility and chemical stability.

[1] = Bi-CaCo2 permeability assay; assay type: in vitro ADME, human; conditions: human, Caco-2; efflux ratio
Procedure: as §1, §2

human plasma protein = assay: Binding to human plasma protein; assay type: in vitro ADME
Procedure: as §3

[2] = Binding to human plasma protein; assay type: in vitro ADME; conditions: human, human plasma protein; read-out: hPPB (converted)
Procedure: as §3

[3] = tested on: isolated hepatocytes from swiss mice; assay: Hepatotoxicity, MTT colorimetric assay; assay type: cell-based
Procedure: as §3

NGAL [4] = molecular target: T1, NGAL (Homo sapiens, UniProt P80188); assay: NGAL-induced profibrotic marker synthesis in human cardiac fibroblasts (western blot); assay type: cell-based; conditions: FIGS. 1 and 2 panel C
T1 construct: purchased R&D Systems
Procedure: (§4) Cell Culture Human cardiac fibroblasts (primary culture) were obtained from Promocell and maintained in medium (Fibroblast Media 3). Cells were cultured according to the manufacturer's instructions and used between passages 5 and 7. Cells were stimulated with aldosterone (10^-8 M, Sigma) or recombinant hNGAL (500 ng/mL, R&D Systems) for 24 h for protein analysis. Mouse kidney fibroblasts (MKF), were isolated from Wild Type (WT) mice. Briefly, mice 7 to 8 weeks were sacrificed by cervical dislocation and kidneys were cleaned and rinsed in cold DPBS (Dulbecco's Phosphate-Buffered Saline). The renal cortex was minced and incubated in Dulbecco's modified eagle medium/Nutrient mixture F-12 (DMEM/F12, Sigma) containing 1 mg/mL collagenase A (Roche) during 25 minutes at 37° C. […]
(§5) Total protein aliquots of 20 μg were prepared from cardiac homogenates and electrophoresed on SDS polyacrylamide gels and transferred to Hybond-c Extra nitrocellulose membranes (Amersham Biosciences). […] After densitometric analyses, optical density values were expressed as arbitrary units. Results are expressed as an n-fold increase over the values of the control group in densitometric arbitrary units.
(§6) The inhibitory activity of the compounds was evaluated on the NGAL-induced IL6 secretion (NGAL 10 ng/ml) in human cardiac fibroblasts. […]

NGAL [5] = molecular target: T1, NGAL; assay: NGAL-induced IL6 secretion in human cardiac fibroblasts (ELISA); assay type: cell-based; conditions: for Activity: NGAL-induced IL6 secretion (NGAL 10 ng/ml), Control = 1.00 ± 0.03
Procedure: (§7) Cell Culture Human cardiac fibroblasts (primary culture) were obtained from Promocell and maintained in medium (Fibroblast Media 3). Cells were cultured according to the manufacturer's instructions and used between passages 5 and 7. Cells were stimulated with aldosterone (10^-8 M, Sigma) or recombinant hNGAL (500 ng/mL, R&D Systems) for 24 h for protein analysis. Mouse kidney fibroblasts (MKF), were isolated from Wild Type (WT) mice. Briefly, mice 7 to 8 weeks were sacrificed by cervical dislocation and kidneys were cleaned and rinsed in cold DPBS (Dulbecco's Phosphate-Buffered Saline). The renal cortex was minced and incubated in Dulbecco's modified eagle medium/Nutrient mixture F-12 (DMEM/F12, Sigma) containing 1 mg/mL collagenase A (Roche) during 25 minutes at 37° C. The digestion was inactivated by adding culture medium (DMEM/F12+10% FBS) then the cell suspension was passed through a 100-μm cell strainer. After centrifugation, the pellet (containing MKF) was diluted with culture medium then plated in 75 cm^2 culture flask. After 24 hours MKF were washed with DPBS before replacement of fresh culture medium. Thereafter, culture medium was changed every 48 hours. Once 70-80% confluent, MKF were trypsinized and plated in 12 or 6-well plates. For experimental use, MKF were starved with culture medium containing only 3% FBS. MKF were treated with mNGAL (500 ng/mL, R&D Systems) for 24 h for gene expression analysis.
(§8) NGAL, IL6 and collagen type I concentrations were measured in cardiac tissue and cell supernatants, respectively, by ELISA according to the manufacturer's instructions (R&D Systems).
The inhibitory activity of the compounds was evaluated on the NGAL-induced IL6 secretion (NGAL 10 ng/ml) in human cardiac fibroblasts.
Inhibitory activities of 23 second generation compounds derived from GPZ614741 and GPZ058225 were evaluated on the NGAL-induced IL6 secretion (NGAL 10 ng/ml) in human cardiac fibroblasts.

Chemical stability = assay type: physicochemical
Procedure: as §3

CYP3A4 = molecular target: T2, CYP3A4 (Homo sapiens, UniProt P08684); assay: CYP3A4 inhibition assay (Vivid CYP3A4 assay); assay type: in vitro ADME
T2 construct: purchased Thermo Fisher Scientific
Procedure: as §3

[6] = tested on: aldosterone-induced profibrotic marker synthesis; assay: Aldosterone-induced profibrotic marker synthesis in human cardiac fibroblasts; assay type: cell-based; conditions: FIGS. 1 and 2 panel D
Procedure: Cell Culture Human cardiac fibroblasts (primary culture) were obtained from Promocell and maintained in medium (Fibroblast Media 3). Cells were cultured according to the manufacturer's instructions and used between passages 5 and 7. Cells were stimulated with aldosterone (10^-8 M, Sigma) or recombinant hNGAL (500 ng/mL, R&D Systems) for 24 h for protein analysis. Mouse kidney fibroblasts (MKF), were isolated from Wild Type (WT) mice. Briefly, mice 7 to 8 weeks were sacrificed by cervical dislocation and kidneys were cleaned and rinsed in cold DPBS (Dulbecco's Phosphate-Buffered Saline). […]
as §5, §8, §6

human microsomes = assay: Stability in human microsomes; assay type: in vitro ADME
Procedure: as §3

hERG channel = molecular target: T3, hERG channel (Homo sapiens, UniProt Q12809); assay: Cardiotoxicity, Predictor hERG fluorescence polarization kit; assay type: binding
T3 construct: purchased Thermo Fisher Scientific
Procedure: as §3

NGAL [7] = molecular target: T1, NGAL; assay: NGAL-induced Col 1 secretion in human cardiac fibroblasts (ELISA); assay type: cell-based; conditions: FIGS. 1 and 2 panel B
Procedure: as §4, with “C. The digestion was inactivated by adding culture medium (DMEM/F12+10% FBS) then the cell suspension was passed through a 100-μm cell strainer. After centrifugation, the pellet (containing MKF) was diluted with culture medium then plated in 75 cm^2 culture flask.” for “C.”
as §8, §6

NGAL [8] = molecular target: T1, NGAL; assay: NGAL-induced proliferation of human cardiac fibroblast cells (MTT); assay type: cell-based; conditions: NGAL 10 ng/ml; FIG. 3
Procedure: as §7
Cell proliferation was assessed using the MTT Proliferation Assay (Sigma).
Results are shown on FIG. 3.

T1 sequence (P80188 21-198): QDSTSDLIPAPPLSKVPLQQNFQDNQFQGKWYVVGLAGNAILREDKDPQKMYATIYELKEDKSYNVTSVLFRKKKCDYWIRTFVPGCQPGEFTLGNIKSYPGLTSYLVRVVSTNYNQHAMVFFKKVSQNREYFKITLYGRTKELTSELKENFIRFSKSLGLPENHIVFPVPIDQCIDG
T2 sequence (P08684 whole entry): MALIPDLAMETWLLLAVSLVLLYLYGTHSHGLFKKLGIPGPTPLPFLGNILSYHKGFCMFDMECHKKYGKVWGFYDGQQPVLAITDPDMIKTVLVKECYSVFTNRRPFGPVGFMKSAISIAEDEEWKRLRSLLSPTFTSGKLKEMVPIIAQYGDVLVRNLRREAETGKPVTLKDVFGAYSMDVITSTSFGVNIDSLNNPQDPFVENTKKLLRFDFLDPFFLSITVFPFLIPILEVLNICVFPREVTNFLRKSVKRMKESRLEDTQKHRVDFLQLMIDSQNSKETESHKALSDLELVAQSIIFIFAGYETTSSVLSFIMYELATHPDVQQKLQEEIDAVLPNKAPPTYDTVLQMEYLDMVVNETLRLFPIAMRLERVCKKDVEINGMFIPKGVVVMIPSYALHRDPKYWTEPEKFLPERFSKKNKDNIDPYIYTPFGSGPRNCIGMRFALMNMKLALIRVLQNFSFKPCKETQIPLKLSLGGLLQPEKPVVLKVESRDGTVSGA
T3 sequence (Q12809 whole entry): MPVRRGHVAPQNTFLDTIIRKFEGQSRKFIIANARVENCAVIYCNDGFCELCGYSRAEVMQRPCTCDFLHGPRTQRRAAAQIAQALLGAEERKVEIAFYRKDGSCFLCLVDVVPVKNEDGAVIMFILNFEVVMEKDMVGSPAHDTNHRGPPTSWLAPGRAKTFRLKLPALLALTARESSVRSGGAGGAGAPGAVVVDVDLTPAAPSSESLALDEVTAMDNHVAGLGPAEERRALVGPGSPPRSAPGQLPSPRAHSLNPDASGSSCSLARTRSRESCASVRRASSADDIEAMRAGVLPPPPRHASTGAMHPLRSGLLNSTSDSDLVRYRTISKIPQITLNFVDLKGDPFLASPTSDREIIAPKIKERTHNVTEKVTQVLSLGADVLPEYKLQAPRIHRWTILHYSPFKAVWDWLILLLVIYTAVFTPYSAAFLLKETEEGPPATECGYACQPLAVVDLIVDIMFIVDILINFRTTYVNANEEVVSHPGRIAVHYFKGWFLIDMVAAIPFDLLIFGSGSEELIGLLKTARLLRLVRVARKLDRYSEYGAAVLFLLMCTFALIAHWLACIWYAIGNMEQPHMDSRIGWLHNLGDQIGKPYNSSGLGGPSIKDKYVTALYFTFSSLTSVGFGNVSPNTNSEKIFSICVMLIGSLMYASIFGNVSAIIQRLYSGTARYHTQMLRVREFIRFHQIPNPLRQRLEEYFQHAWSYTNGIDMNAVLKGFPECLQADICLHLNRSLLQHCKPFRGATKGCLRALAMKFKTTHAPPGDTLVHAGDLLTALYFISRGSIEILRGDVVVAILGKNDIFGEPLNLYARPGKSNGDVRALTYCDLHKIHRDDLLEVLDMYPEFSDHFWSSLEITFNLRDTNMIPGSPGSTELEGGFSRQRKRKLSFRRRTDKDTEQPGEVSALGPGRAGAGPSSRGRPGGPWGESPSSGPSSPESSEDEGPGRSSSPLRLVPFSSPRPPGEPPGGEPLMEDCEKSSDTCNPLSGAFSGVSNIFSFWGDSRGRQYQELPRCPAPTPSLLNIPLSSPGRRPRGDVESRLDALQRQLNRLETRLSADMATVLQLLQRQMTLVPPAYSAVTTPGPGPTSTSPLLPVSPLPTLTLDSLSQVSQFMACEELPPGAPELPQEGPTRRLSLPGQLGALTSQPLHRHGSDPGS

## CC(C)NC[C@H](O)COc1cccc2ccccc12 (racemic) [propanolol, reference compound]
CaCo2 cell line; efflux ratio
  Ratio: 1.56

## CCS(=O)(=O)c1ccc2oc(SCc3cn4c(C)cc(C)nc4n3)nc2c1 [GPZ058225]
Aqueous solubility
  Aquous solubility: 63.46%
  solubility in aqueous buffers (solubility test): 63%
[1]
  efflux ratio: 2.11
CaCo2 cell line; compared with reference compound propranolol
  permeability through the intestinal epithelia (in words): quite high
Human plasma protein
  PPB (binding to plasma proteins): within acceptance range
[2]
  fraction unbound: 0.109
[3]; MTT up to 0.1 mM
  hepatotoxicity (toxicity for hepatocytes): > 0.1 mM
[3]; cell wrapped over two lines: No tox up / 100 uM
  Hepatotoxicity: No tox up
NGAL [4]
  NGAL-induced profibrotic marker (col1, col III, fibronectin, Gal3, OPN) synthesis: inhibited
NGAL [5]; NGAL 10 ng/ml, FIGS. 1 and 2 panel A
  NGAL-induced IL6 secretion: inhibited
Chemical stability
  Chemical Stability: 92.2%
  stability to acidic pH / digestive content: very stable
CYP3A4
  inhibited the enzyme activity (CYP3A4) in a competition assay: 32%
CYP3A4; human, recombinant CYP3A4 (Vivid CYP3A4 assay kit), 100 = no inhibition, read-out: CyP 3A4 Inhibition % (100 = no inhibition)
  Activity: 68.1 ± 1.52%
[6]
  aldosterone-induced profibrotic marker (Col1, CT-1, or IL6) synthesis: inhibited
Human microsomes; after 2 h
  microsomes degradation, left after 2 h: very stable
Human microsomes; human microsomes
  Micro Stability: 100%
hERG channel
  cardiotoxicity (hERG predictor assay): did not block hERG channel
hERG channel; 100 = no toxicity
  Cardiotoxicity % (100 = no toxicity): 101.73 ± 4.1%
NGAL [7]
  Col 1 secretion (NGAL-induced): inhibited

## O=C(Nc1nc2cc(F)c(F)cc2s1)c1cn2cccnc2n1 [GPZ278618]
NGAL [5]
  Activity: 0.86 ± 0.02

## CC(=O)c1ccc(S(=O)(=O)Nc2ccccc2-n2cccn2)cc1 [GPZ478519]
NGAL [5]
  Activity: 0.69 ± 0.02

## CC(=O)c1cccc(S(=O)(=O)NCc2ccccc2Cn2cccn2)c1 [GPZ505884]
NGAL [5]
  Activity: 0.83 ± 0.02

## Clc1c(SCc2nc3ccccc3s2)nc2ncccn12 [GPZ564849]
NGAL [5]
  Activity: 0.85 ± 0.05

## O=S(=O)(NCc1ccccc1-n1cccn1)c1ccccc1 [GPZ595600]
NGAL [5]
  Activity: 0.92 ± 0.04

## Nc1ccc(S(=O)(=O)Nc2ccnn2-c2ccccc2)cc1 [GPZ624624, Sulfaphenazole]
NGAL [8]
  NGAL-induced proliferation of human cardiac fibroblast cells: Inhibitory effects

## CC(=O)c1cccc(S(=O)(=O)NCc2ccccc2-c2ccc(CN(C)C)cc2)c1 [GPZ642292]
NGAL [5]
  Activity: 0.64 ± 0.02

## CCN(CC)CCn1c(-c2ccccc2)noc1=N [GPZ646083, Imolamine]
NGAL [8]
  NGAL-induced proliferation of human cardiac fibroblast cells: Inhibitory effects

## CC(=O)c1ccc(S(=O)(=O)NC(=O)NC2CCCCC2)cc1 [GPZ706277, Acetohexamide]
NGAL [8]
  NGAL-induced proliferation of human cardiac fibroblast cells: Inhibitory effects

## Cc1cc(C)n2cc(CSc3nc4ccccc4[nH]3)nc2n1 [GPZ743042]
NGAL [5]
  Activity: 0.94 ± 0.03

## N#Cc1cccc(S(=O)(=O)NCc2cccc(-n3cccn3)c2)c1 [GPZ778195]
NGAL [5]
  Activity: 0.88 ± 0.04

## CC(=O)c1cccc(S(=O)(=O)NCc2ccccc2-c2ccsc2)c1 [GPZ863205]
NGAL [5]
  Activity: 0.93 ± 0.03

## CCN1CCN(Cc2ccccc2CNS(=O)(=O)c2cccc(C(C)=O)c2)CC1 [GPZ913629]
NGAL [5]
  Activity: 0.93 ± 0.02
